Results published in the supplement of paper PMC10307832.

Assays:
Assay in all cases: relative viability (nuclei count vs DMSO), 5 days (fraction); higher = more cells survive
CX-5461 + OSI-027 = compound: Cc1cnc(CNC(=O)c2c(=O)c3ccc(N4CCCN(C)CC4)nc3n3c2sc2ccccc23)cn1 [CX-5461] + COc1cccc2cc(-c3nc([C@H]4CC[C@H](C(=O)O)CC4)n4ncnc(N)c34)[nH]c12 [OSI-027] (partner 0.5 µM)
Summary of the method: (§1)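 The day after seeding in 1536-well plates, lung cancer cell lines were treated by pin tool with a single drug, or with a fixed anchor-drug dose together with five library-drug doses (not always all listed) in √10 steps. After 5 days, a combined fix-and-stain solution (final 0.05% Triton X-100, 1% formaldehyde, 1 ug/ml Hoechst) was added. Nuclei counted on 4× images gave relative viability as treated counts over vehicle counts, reported as the median of duplicate plates.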

CX-5461 + Decitabine = compound: Cc1cnc(CNC(=O)c2c(=O)c3ccc(N4CCCN(C)CC4)nc3n3c2sc2ccccc23)cn1 [CX-5461] + Nc1ncn([C@H]2C[C@H](O)[C@@H](CO)O2)c(=O)n1 [Decitabine] (partner 2 µM)
Summary of the method: as §1

CX-5461 + Crizotinib = compound: Cc1cnc(CNC(=O)c2c(=O)c3ccc(N4CCCN(C)CC4)nc3n3c2sc2ccccc23)cn1 [CX-5461] + C[C@@H](Oc1cc(-c2cnn(C3CCNCC3)c2)cnc1N)c1c(Cl)ccc(F)c1Cl [Crizotinib] (partner 1 µM)
Summary of the method: as §1

IMD-0354 + OSI-027 = compound: O=C(Nc1cc(C(F)(F)F)cc(C(F)(F)F)c1)c1cc(Cl)ccc1O [IMD-0354] + COc1cccc2cc(-c3nc([C@H]4CC[C@H](C(=O)O)CC4)n4ncnc(N)c34)[nH]c12 [OSI-027] (partner 0.5 µM)
Summary of the method: as §1

Cell Line	relative viability (CX-5461 + OSI-027; first compound 0.01 µM)	relative viability (CX-5461 + OSI-027; first compound 0.03162 µM)	relative viability (CX-5461 + OSI-027; first compound 0.1 µM)	relative viability (CX-5461 + OSI-027; first compound 0.3162 µM)	relative viability (CX-5461 + OSI-027; first compound 1 µM)	relative viability (CX-5461 + Decitabine; first compound 0.01 µM)	relative viability (CX-5461 + Decitabine; first compound 0.03162 µM)	relative viability (CX-5461 + Decitabine; first compound 0.1 µM)	relative viability (CX-5461 + Decitabine; first compound 0.3162 µM)	relative viability (CX-5461 + Decitabine; first compound 1 µM)	relative viability (CX-5461 + Crizotinib; first compound 0.01 µM)	relative viability (CX-5461 + Crizotinib; first compound 0.03162 µM)	relative viability (CX-5461 + Crizotinib; first compound 0.1 µM)	relative viability (CX-5461 + Crizotinib; first compound 0.3162 µM)	relative viability (CX-5461 + Crizotinib; first compound 1 µM)	relative viability (IMD-0354 + OSI-027; first compound 0.04 µM)	relative viability (IMD-0354 + OSI-027; first compound 0.1265 µM)	relative viability (IMD-0354 + OSI-027; first compound 0.4 µM)	relative viability (IMD-0354 + OSI-027; first compound 1.265 µM)	relative viability (IMD-0354 + OSI-027; first compound 4 µM)
NCI-H1975	0.842	0.735	0.661	0.865	0.329	0.404	0.36	0.424	0.447	0.276	1.13	0.986	0.821	1.08	0.462	0.917	0.6	0.402	0.205	0.155
CAL-12T	0.587	0.693	0.389	0.679	0.347	–	–	–	–	–	0.564	0.588	–	0.653	0.365	0.807	0.463	0.385	0.193	0.17
NCI-H1623	0.394	0.434	0.481	0.41	0.417	–	–	–	–	–	–	–	–	–	–	0.464	0.395	0.458	0.409	0.37
HCC-44	0.564	0.623	0.6	0.51	0.366	0.946	1.02	0.887	0.939	0.837	0.796	0.832	0.823	0.782	0.801	0.556	0.562	0.334	0.285	0.215
EKVX	0.745	0.676	0.786	0.734	0.688	0.286	0.418	0.395	–	0.39	1.12	0.997	0.899	–	0.827	0.771	0.685	0.629	0.631	0.19
NCI-H1651	0.61	0.62	–	0.458	0.131	0.598	0.554	0.452	0.588	0.158	0.829	0.862	0.76	0.967	0.812	0.667	0.667	0.495	0.199	0.0772
NCI-H2170	0.812	0.666	0.754	0.707	0.747	0.471	0.454	0.493	0.504	0.446	1.17	1.29	1.28	1.18	1.09	0.764	0.673	0.475	0.547	0.231
NCI-H1703	–	–	–	–	–	–	–	–	–	–	0.783	0.852	0.77	0.663	0.343	–	–	–	–	–
Calu-6	–	–	–	–	–	–	–	–	–	–	0.861	0.809	0.722	0.723	0.289	–	–	–	–	–
EBC-1	–	–	–	–	–	–	–	–	–	–	0.174	0.207	0.19	0.215	0.156	–	–	–	–	–
A-427	0.488	0.534	0.542	–	0.378	0.593	0.603	0.52	0.269	0.481	1.04	1.08	1	–	0.888	0.66	0.459	0.288	0.127	0.135
NCI-H2347	0.326	0.395	0.411	0.553	0.395	0.628	0.638	0.625	0.604	0.589	0.446	0.696	0.674	0.687	0.523	0.37	0.331	0.42	0.294	0.335
NCI-H1355	0.438	0.428	0.456	0.267	0.321	0.356	0.34	0.395	0.371	0.348	1.06	1.24	1.04	1.07	1.09	0.382	0.45	0.372	0.258	0.234
SK-MES-1	0.586	0.57	0.582	0.607	0.372	0.379	0.398	0.413	0.394	0.212	0.969	1.14	1.01	0.958	0.948	0.647	0.542	0.462	0.199	0.202
PC-3 [JPC-3]	0.828	0.811	0.773	0.668	0.707	0.801	–	0.842	0.801	0.77	0.987	0.996	0.969	0.952	0.926	0.845	0.708	0.605	0.344	0.282
NCI-H2228	0.629	0.428	0.361	0.272	0.13	–	–	–	–	–	0.445	0.602	0.511	0.482	0.204	0.586	0.431	0.348	0.23	0.142
HOP-62	0.824	0.941	0.83	0.93	0.594	0.243	0.23	0.171	0.191	0.207	0.996	0.901	0.858	0.624	1.09	0.954	0.782	0.516	0.295	0.204

Cell Line	relative viability (CX-5461 + OSI-027; first compound 0.01 µM)	relative viability (CX-5461 + OSI-027; first compound 0.03162 µM)	relative viability (CX-5461 + OSI-027; first compound 0.1 µM)	relative viability (CX-5461 + OSI-027; first compound 0.3162 µM)	relative viability (CX-5461 + OSI-027; first compound 1 µM)	relative viability (CX-5461 + Decitabine; first compound 0.01 µM)	relative viability (CX-5461 + Decitabine; first compound 0.03162 µM)	relative viability (CX-5461 + Decitabine; first compound 0.1 µM)	relative viability (CX-5461 + Decitabine; first compound 0.3162 µM)	relative viability (CX-5461 + Decitabine; first compound 1 µM)	relative viability (CX-5461 + Crizotinib; first compound 0.01 µM)	relative viability (CX-5461 + Crizotinib; first compound 0.03162 µM)	relative viability (CX-5461 + Crizotinib; first compound 0.1 µM)	relative viability (CX-5461 + Crizotinib; first compound 0.3162 µM)	relative viability (CX-5461 + Crizotinib; first compound 1 µM)	relative viability (IMD-0354 + OSI-027; first compound 0.04 µM)	relative viability (IMD-0354 + OSI-027; first compound 0.1265 µM)	relative viability (IMD-0354 + OSI-027; first compound 0.4 µM)	relative viability (IMD-0354 + OSI-027; first compound 1.265 µM)	relative viability (IMD-0354 + OSI-027; first compound 4 µM)
HARA	0.616	0.572	0.423	–	0.319	0.595	0.429	0.559	0.587	0.526	1.16	1.14	0.941	0.206	0.954	0.576	0.542	0.179	0.148	0.0924
NCI-H838	0.413	0.384	0.404	–	0.272	0.475	0.479	0.47	0.429	0.332	0.973	0.87	0.843	0.347	0.641	0.422	0.334	0.294	0.209	0.211
NCI-H1755	0.732	0.736	0.713	0.646	0.655	0.782	0.763	0.66	0.687	0.69	0.921	0.937	0.895	0.842	0.833	0.65	0.782	0.528	0.354	0.302
HCC-78	0.409	0.362	0.366	0.363	0.354	0.678	0.678	0.595	0.694	0.565	0.357	0.36	0.358	0.243	0.328	0.321	0.363	0.314	0.296	0.283
IA-LM	–	–	–	–	–	–	–	–	–	–	0.968	0.813	0.821	0.836	0.33	–	–	–	–	–
NCI-H322M	0.534	0.552	0.578	0.389	0.393	0.716	0.701	0.637	0.572	0.614	0.924	1.06	0.79	–	0.877	0.612	0.493	0.427	0.285	0.33
NCI-H3122	1.07	0.882	0.938	0.672	0.668	0.407	0.387	0.354	0.515	0.417	0.299	0.267	0.284	0.255	0.282	1.08	0.851	0.505	0.223	0.114
SK-LU-1	0.347	0.321	0.386	–	0.203	0.722	0.597	0.709	0.754	0.455	0.95	1.01	0.837	0.891	0.51	0.32	0.305	0.277	0.181	0.193
NCI-H522	0.739	0.771	0.77	–	0.669	0.763	0.641	0.671	–	0.678	–	–	–	–	–	0.723	0.683	0.688	0.385	0.343
NCI-H1299	–	–	–	–	–	–	–	–	–	–	0.961	0.99	0.991	0.959	0.863	–	–	–	–	–
NCI-H1648	–	0.256	0.277	0.27	0.27	0.493	0.508	0.488	0.44	0.474	–	–	–	–	–	–	0.27	0.287	0.244	0.278
NCI-H2342	0.633	0.599	0.584	0.642	0.598	0.686	0.699	0.734	0.691	0.586	–	–	–	–	–	0.723	0.659	0.499	0.472	0.482
SW 900	0.423	0.601	0.488	0.386	0.271	0.631	0.448	–	0.457	0.387	–	–	–	–	–	0.64	0.674	0.308	0.263	0.248
NCI-H1395	0.639	0.625	0.63	0.475	0.515	0.764	0.673	0.805	0.653	0.532	–	–	–	–	–	0.69	0.755	0.651	0.43	0.256
NCI-H1793	0.296	0.289	0.318	–	0.198	0.504	0.446	0.535	0.379	0.581	–	–	–	–	–	0.319	0.293	0.161	0.165	0.131
A549	–	–	–	–	–	0.299	0.387	0.249	0.269	0.0566	0.824	0.804	0.357	0.655	0.0561	–	–	–	–	–
NCI-H1563	0.715	0.745	0.691	0.771	0.52	–	–	–	–	–	0.865	0.725	0.774	0.675	0.464	0.775	0.769	0.66	0.297	0.413
